This is an account of results in PubChem BioAssay (NCI).

Test systems include OVCAR-8 ovarian; UACC-62 melanoma; CCRF-CEM leukemia; UACC-257 melanoma; SK-MEL-2 melanoma; SF-268 CNS; K-562 leukemia; HCT-15 colon; LOX IMVI melanoma; CAKI-1 renal.
Test in all cases: inhibition of tumour cell growth, NCI panel, 48 h

“And” between values parts separate entries of the source, which are not always exact repeats. Equal entries are not always repeated.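 Growth conditions: 96-well plates. Treatment: test compound, 48 hours, 5 concentrations. Analysis: linear interpolation between bracketing concentrations; unreached endpoints set to highest concentration. GI50: concentration for 50% inhibition of growth. Definition used: TGI = concentration required for complete inhibition of growth.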 Bounds are passed on as bounds.

As to `COC(=O)[C@@H](C)C[C@H](Cc1ccccc1)NC(=O)c1csc([C@@H](C[C@H](C(C)C)N(C)C(=O)[C@@H](NC(=O)[C@H]2CCCCN2C)c2ccc(F)cc2)OC(C)=O)n1`, the TGI in the experiment on OVCAR-8 ovarian was 25 µM and > 100 µM; in the experiment on UACC-62 melanoma, 25 µM; with CCRF-CEM leukemia, 25 µM and > 100 µM; in the experiment with UACC-257 melanoma it was more than 100 µM; in the experiment on SK-MEL-2 melanoma it was more than 100 µM; in the experiment with SF-268 CNS, 25 µM and > 100 µM. Besides, the TGI is 25 µM and 20.8 µM in the experiment on K-562 leukemia; 25 µM and > 100 µM in the experiment with HCT-15 colon; 6.71 µM and 20.8 µM in the experiment on LOX IMVI melanoma. Further, the GI50 with UACC-62 melanoma is 0.00331 µM and 0.0025 µM; with SK-MEL-2 melanoma, 0.00682 µM and 0.0293 µM.

As for `CN1CCN(c2ccncc2S(=O)(=O)N2CCN(C)CC2)CC1`, the TGI in the experiment with OVCAR-8 ovarian, in the experiment on UACC-62 melanoma, in the experiment with CAKI-1 renal, with UACC-257 melanoma, in the experiment on SK-MEL-2 melanoma and in the experiment with SF-268 CNS was more than 100 µM in each case. Moreover, the TGI with K-562 leukemia, in the experiment on HCT-15 colon and in the experiment on LOX IMVI melanoma was more than 100 µM throughout.

As to `COc1ccc2c(c1)C(=O)/C(=C/c1ccc(O)cc1)O2`, the GI50 with OVCAR-8 ovarian was 27.2 µM; in the experiment on UACC-62 melanoma, 14.7 µM; with CAKI-1 renal it was 1.88 µM; in the experiment on CCRF-CEM leukemia it was 1.63 µM; in the experiment with UACC-257 melanoma, 19.8 µM; with SF-268 CNS it was 14.8 µM. The GI50 in the experiment with K-562 leukemia is 2.58 µM; in the experiment with HCT-15 colon, 4.2 µM; in the experiment on LOX IMVI melanoma, 3.29 µM. The TGI with OVCAR-8 ovarian is more than 75 µM; with UACC-62 melanoma, 30.5 µM; in the experiment with CAKI-1 renal it was 5.66 µM; in the experiment on CCRF-CEM leukemia, 3.54 µM; with UACC-257 melanoma, 35.2 µM; with SF-268 CNS it was 41.1 µM. Further, the TGI in the experiment with K-562 leukemia is more than 24.8 µM; in the experiment with HCT-15 colon it was 15.8 µM; in the experiment on LOX IMVI melanoma, 14 µM.

As to `COC(=O)C(/C(=N/N)C(=O)Nc1cc(Cl)ccc1Cl)c1nc2ccc([N+](=O)[O-])cc2[nH]c1=O` (stereo not drawn), the TGI in the experiment on OVCAR-8 ovarian, in the experiment with UACC-62 melanoma, in the experiment on CCRF-CEM leukemia, with UACC-257 melanoma, in the experiment on SK-MEL-2 melanoma and in the experiment on SF-268 CNS was more than 100 µM throughout. The TGI in the experiment on K-562 leukemia, in the experiment with HCT-15 colon and in the experiment with LOX IMVI melanoma was more than 100 µM in each case.

For the molecule `O=C(N/C(=C\c1cccc([N+](=O)[O-])c1)c1nc2c3c(ccc2[nH]1)C(=O)c1ccccc1C3=O)c1ccccc1`, the TGI in the experiment on OVCAR-8 ovarian, with UACC-62 melanoma, in the experiment on CAKI-1 renal, in the experiment with SK-MEL-2 melanoma, with SF-268 CNS and in the experiment with HCT-15 colon was more than 100 µM each time.

Take `COC(=O)CCCCCOS(=O)(=O)c1ccc(C)cc1`: the TGI in the experiment on OVCAR-8 ovarian, in the experiment on UACC-62 melanoma, in the experiment on CCRF-CEM leukemia, in the experiment on UACC-257 melanoma, in the experiment with SK-MEL-2 melanoma and in the experiment on SF-268 CNS was more than 100 µM each time. Moreover, the TGI in the experiment with K-562 leukemia, in the experiment with HCT-15 colon and in the experiment on LOX IMVI melanoma was more than 100 µM each time.

Take `CC1=NC(C)=C(/C(C)=N/NC(=O)c2ccccc2O)C(C)/C1=C(/C)NNC(=O)c1ccccc1O` (stereo not drawn): the TGI was 50.5 µM with OVCAR-8 ovarian; 26.3 µM in the experiment on UACC-62 melanoma; more than 100 µM in the experiment with CAKI-1 renal; 76.6 µM with UACC-257 melanoma; more than 100 µM in the experiment on SF-268 CNS; 35.3 µM in the experiment with K-562 leukemia. In addition, the TGI was 99 µM in the experiment with HCT-15 colon and 51.7 µM with LOX IMVI melanoma.

With `Cc1cc(C)c([I+]c2c(C)cc(C)cc2C)c(C)c1`, the GI50 with OVCAR-8 ovarian was 0.286 µM; in the experiment on UACC-62 melanoma, 0.339 µM; with CAKI-1 renal, 1.43 µM; with CCRF-CEM leukemia, 0.365 µM; with UACC-257 melanoma, 0.296 µM; in the experiment on SK-MEL-2 melanoma, 0.482 µM. Also, the GI50 in the experiment with SF-268 CNS was 0.615 µM; in the experiment on K-562 leukemia, 0.319 µM; in the experiment on HCT-15 colon it was 2.15 µM. The TGI stood at 1.09 µM in the experiment with OVCAR-8 ovarian; 1.5 µM in the experiment on UACC-62 melanoma; 4.15 µM in the experiment with CAKI-1 renal; 2.24 µM in the experiment with CCRF-CEM leukemia; 1.09 µM in the experiment on UACC-257 melanoma; 1.61 µM in the experiment with SK-MEL-2 melanoma. The TGI in the experiment on SF-268 CNS came to 2.23 µM; in the experiment with K-562 leukemia, 1.43 µM; with HCT-15 colon, 6.76 µM.

Take `O=C(NC1CCCCC1)NC12CC3CC(CC(F)(C3)C1)C2`: the TGI in the experiment with OVCAR-8 ovarian, in the experiment with UACC-62 melanoma, with CCRF-CEM leukemia, with UACC-257 melanoma, in the experiment on SK-MEL-2 melanoma and in the experiment with K-562 leukemia was more than 100 µM in each case. The molecule further returned a TGI with LOX IMVI melanoma of more than 100 µM.

For `NCCCNCc1c2ccccc2c(CNCCCN)c2ccccc12`, the TGI in the experiment with OVCAR-8 ovarian was 33.9 µM; in the experiment with UACC-62 melanoma, more than 100 µM; in the experiment with CAKI-1 renal, more than 100 µM; with CCRF-CEM leukemia, 46.6 µM; with UACC-257 melanoma, 45.1 µM; with SK-MEL-2 melanoma, 28.2 µM. The TGI turned out to be 20.2 µM with SF-268 CNS, 32.5 µM with K-562 leukemia and 54.1 µM with HCT-15 colon.

In the case of `Cn1nc(-c2ccccc2)c2c(/C=C/c3ccc(F)cc3)onc2c1=O`, the TGI in the experiment with OVCAR-8 ovarian was more than 100 µM; in the experiment on UACC-62 melanoma, more than 100 µM; in the experiment on CAKI-1 renal, 66 µM; in the experiment on CCRF-CEM leukemia, more than 100 µM; in the experiment with SF-268 CNS, more than 100 µM; in the experiment on K-562 leukemia, more than 100 µM. Further, the TGI in the experiment with HCT-15 colon and in the experiment with LOX IMVI melanoma was more than 100 µM each time.

On to `Nc1ccc(C(=O)CC2(O)C(=O)Nc3ccccc32)cc1` (stereo not drawn), for which the TGI in the experiment on OVCAR-8 ovarian, in the experiment on UACC-62 melanoma, with CAKI-1 renal, with UACC-257 melanoma, with SK-MEL-2 melanoma and in the experiment with SF-268 CNS was more than 100 µM in each case. Moreover, the TGI in the experiment with K-562 leukemia, in the experiment on HCT-15 colon and with LOX IMVI melanoma was more than 100 µM throughout.

`Cc1ccc([N+](=O)[O-])cc1NC(=O)C(=O)Cc1nc2ccc(C(=O)c3ccccc3)cc2[nH]c1=O`: the TGI in the experiment with OVCAR-8 ovarian, with UACC-62 melanoma, in the experiment with CAKI-1 renal, in the experiment with CCRF-CEM leukemia, in the experiment with UACC-257 melanoma and in the experiment on HCT-15 colon was more than 100 µM in each case. The same molecule displayed a TGI in the experiment on LOX IMVI melanoma of more than 100 µM.
